Results taken from patent US9096639B2, “17-hydroxy-17-pentafluorethyl-estra-4,9(10)-dien-11-acyloxyalkylene phenyl derivatives, methods for the production thereof and use thereof for treating diseases” (Bayer Intellectual Property GmbH, priority 2009, dated 2015).
Structures can show the parent of a compound that is named as a salt.

Experiments:
[1] = biological target: T1, human progesterone receptor A (Homo sapiens, UniProt P06401); assay: Progesterone receptor transactivation test in stably transfected SK-N-MC cells (PR-A, MMTV-LUC reporter); format: cell-based; settings: 0.1 nmol/l promegestone, 24 hours, read-out: PR-A IC50 (antagonistic potency)
T1 construct: expressed in transfected cells; host or cells: SK-N-MC human neuroblastoma cells, stably transfected with pRChPR-A-neo and pMMTV-LUC
T1 sequence (P06401 1-769 isoform P06401-2): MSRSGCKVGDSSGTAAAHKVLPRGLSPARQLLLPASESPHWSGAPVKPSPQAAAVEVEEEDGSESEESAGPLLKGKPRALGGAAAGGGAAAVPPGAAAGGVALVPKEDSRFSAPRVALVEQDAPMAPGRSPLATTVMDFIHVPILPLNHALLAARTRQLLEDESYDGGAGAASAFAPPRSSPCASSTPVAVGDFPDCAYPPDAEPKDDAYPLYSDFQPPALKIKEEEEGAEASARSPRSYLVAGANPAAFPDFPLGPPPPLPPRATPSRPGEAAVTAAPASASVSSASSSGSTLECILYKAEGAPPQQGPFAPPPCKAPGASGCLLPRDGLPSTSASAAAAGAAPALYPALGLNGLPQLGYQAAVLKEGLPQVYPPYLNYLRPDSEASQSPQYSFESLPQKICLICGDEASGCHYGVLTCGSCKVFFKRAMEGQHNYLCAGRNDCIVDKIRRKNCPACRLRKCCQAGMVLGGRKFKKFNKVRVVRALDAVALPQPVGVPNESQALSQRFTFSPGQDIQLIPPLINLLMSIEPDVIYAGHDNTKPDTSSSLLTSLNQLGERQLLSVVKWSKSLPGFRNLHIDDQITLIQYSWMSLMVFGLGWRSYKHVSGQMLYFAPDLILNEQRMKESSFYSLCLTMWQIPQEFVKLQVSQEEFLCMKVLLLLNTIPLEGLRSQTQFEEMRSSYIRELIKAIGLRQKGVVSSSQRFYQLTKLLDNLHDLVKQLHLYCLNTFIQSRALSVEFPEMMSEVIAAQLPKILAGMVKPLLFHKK
Description: (§1) Progesterone receptor-antagonistic action in stable transfectants of human neuroblastoma cells (SK-N-MC cells) with the human progesterone A or progesterone B receptor and an MN-LUC reporter construct SK-N-MC cells (human neuroblastoma cells) which have been stably transfected with plasmids expressing the human progesterone receptor B (pRChPR-B-neo) or the human progesterone receptor A (pRChPR-A-neo) and a reporter construct (pMMTV-LUC) were incubated for 24 hours either in the absence (negative control) or in the presence of ascending amounts of the particular test compound (0.01 nmol/l, 0.1 nmol/l, 1 […], 100 nmol/l and […]), in order to determine the agonistic efficacy. As a positive control of the reporter gene induction, the cells were treated with the synthetic gestagen promegestone (0.01 nmol/l, 0.1 nmol/l, 1 nmol/l, 10 nmol/l, 100 nmol/l and […]). To determine the antagonistic activity, the cells were treated with 0.1 nmol/l promegestone and additionally with ascending amounts of the particular test compound (0.01 nmol/l, 0.1 nmol/l, 1 nmol/l, 10 nmol/l, 100 nmol/l and […]). The activity of the reporter gene LUC (LUC=luciferase) was determined in the cell lysates and measured as RLU (relative light units). All measurements are reported as % efficacy and as EC50 and IC50 concentrations.

[2] = Determination of stability in rat plasma; format: in vitro ADME; settings: 37° C., read-out: Stability t1/2 in rat plasma (converted)
Description: (§2) A stock solution of 1.0 mg of the substance to be tested in a 9:1 mixture of acetonitrile and dimethyl sulphoxide was prepared. 20 μl of this stock solution were added at 37° C. to 1 ml of human plasma or rat plasma. To determine the content, 100 μl samples were each taken at different times. The enzyme activity was blocked by adding 300 μl of acetonitrile, the samples were centrifuged at 5000 rpm over 10 minutes and, in the supernatant, the content of ester and hydrolysis products (8S,11R,13S,14S,17S)-17-hydroxy-11-[4-((R)-1-hydroxyethyl)phenyl]-1 3-methyl-17-pentafluoroethyl-1,2,6,7,8,11,12,13,14,15,16,17-dodecahydrocyclopenta[a]phenanthren-3-one and/or (8S,11R,13S,14S,17S)-17-hydroxy-11-[4-((S)-1-hydroxyethyl)phenyl]-13-methyl-17-pentafluoroethyl-1,2,6,7,8,11,12,13,14,15,16,17-dodecahydrocyclopenta[a]phenanthrene-3-one was determined by HPLC. The concentration-time curves were used to calculate the degradation kinetics. The stability of the substance tested was reported as the half-life.

[3] = Determination of hydrolytic stability (5:1 dioxane/buffer, HPLC); format: physicochemical; settings: 5:1 dioxane/buffer solution, test ended after 24 or 192 hours, read-out: Hydrolytic stability t1/2
Description: The ester to be analyzed was dissolved in each case in a 5:1 mixture of dioxane and buffer solution (pH 1.2, pH 5.0 or pH 8.0) at 23° C. At different times, the content of ester and hydrolysis products (8S,11R,13S,14S,1 7S)-17-hydroxy-11-[4-((R)-1-hydroxyethyl)phenyl]-13-methyl-17-pentafluoroethyl-1,2,6,7,8,11,12,13,14,15,16,17-dodecahydrocyclopenta[a]phenanthren-3-one and/or (8S,11R,13S,14S,17S)-17-hydroxy-11-[4-((S)-1-hydroxyethyl)phenyl]-1 3-methyl-17-pentafluoroethyl-1,2,6,7,8,11,12,13,14,15,16,17-dodecahydrocyclopenta[a]phenanthren-3-one was determined by HPLC. The test was ended after 24 hours or 192 hours.

[4] = biological target: T2, human progesterone receptor B (Homo sapiens, UniProt P06401); assay: Progesterone receptor transactivation test in stably transfected SK-N-MC cells (PR-B, MMTV-LUC reporter); format: cell-based; settings: 0.1 nmol/l promegestone, 24 hours, read-out: PR-B IC50 (antagonistic potency)
T2 construct: expressed in transfected cells; host or cells: SK-N-MC human neuroblastoma cells, stably transfected with pRChPR-B-neo and pMMTV-LUC
T2 sequence (P06401 1-933): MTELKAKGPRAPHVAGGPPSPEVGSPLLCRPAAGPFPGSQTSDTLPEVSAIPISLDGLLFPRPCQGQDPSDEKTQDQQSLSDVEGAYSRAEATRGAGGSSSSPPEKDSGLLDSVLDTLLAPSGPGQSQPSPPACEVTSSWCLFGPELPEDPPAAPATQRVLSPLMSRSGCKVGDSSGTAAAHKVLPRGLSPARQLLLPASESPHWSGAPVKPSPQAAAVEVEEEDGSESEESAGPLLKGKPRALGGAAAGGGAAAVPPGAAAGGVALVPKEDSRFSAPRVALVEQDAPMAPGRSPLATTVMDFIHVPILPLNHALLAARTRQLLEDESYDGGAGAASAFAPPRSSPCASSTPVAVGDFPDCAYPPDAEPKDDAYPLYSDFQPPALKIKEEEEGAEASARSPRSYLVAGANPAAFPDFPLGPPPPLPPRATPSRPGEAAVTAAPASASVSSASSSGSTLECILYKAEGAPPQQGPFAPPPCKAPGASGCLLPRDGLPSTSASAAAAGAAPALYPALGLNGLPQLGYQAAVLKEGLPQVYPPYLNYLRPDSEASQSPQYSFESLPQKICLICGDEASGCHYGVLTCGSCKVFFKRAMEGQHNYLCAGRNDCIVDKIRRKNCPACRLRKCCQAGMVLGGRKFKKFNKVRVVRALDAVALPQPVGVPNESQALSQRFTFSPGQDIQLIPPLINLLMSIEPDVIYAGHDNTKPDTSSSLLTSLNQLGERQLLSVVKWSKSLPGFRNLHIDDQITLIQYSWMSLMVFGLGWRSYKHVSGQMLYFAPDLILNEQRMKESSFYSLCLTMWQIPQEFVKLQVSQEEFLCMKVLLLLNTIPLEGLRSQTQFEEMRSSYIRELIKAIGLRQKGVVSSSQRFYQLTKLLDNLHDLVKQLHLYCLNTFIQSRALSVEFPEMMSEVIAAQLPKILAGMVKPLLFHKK
Description: as §1

[5] = Determination of stability in human plasma; format: in vitro ADME
Description: as §2

[6] = 37° C., read-out: Stability t1/2 in human plasma (converted)
[7] = method of working example 19, summary statement in description, read-out: half-life in human plasma

Compound | IC50 [1] [nM] | half-life [2] [h] | half-life ([3]; pH = 1.2, 23° C.) [h] | half-life ([3]; pH = 8.0, 23° C.) [h] | IC50 [4] [nM] | half-life [5, 6] [h] | half-life [5, 7] [h]
CC(OC(=O)[C@@H]1CCCN1C(=O)OC(C)(C)C)c1ccc([C@H]2C[C@@]3(C)C(CC[C@@]3(O)C(F)(F)C(F)(F)F)C3CCC4=CC(=O)CCC4=C32)cc1 (mixture of isomers) [Example 11, (S)-Pyrrolidine-1,2-dicarboxylic acid 1-tert-butyl ester 2-{(RS)-1-[4-((8S,11R,13S,14S,17S)-17-hydroxy-13-methyl-3-oxo-17-pentafluoroethyl-2,3,6,7,8,11,12,13,14,15,16,17-dodecahydro-1H-cyclopenta[a]phenanthren-11-yl)phenyl]ethyl}ester] | 0.1 | 462 | > 192 | > 192 | 0.05 | > 1000 | > 100
CC(OC(=O)[C@@H]1CCCN1)c1ccc([C@H]2C[C@@]3(C)C(CC[C@@]3(O)C(F)(F)C(F)(F)F)C3CCC4=CC(=O)CCC4=C32)cc1 (mixture of isomers) [Example 13, (S)-Pyrrolidine-2-carboxylic acid (RS)-1-[4-((8S,11R,13S,14S,17S)-17-hydroxy-13-methyl-3-oxo-17-pentafluoroethyl-2,3,6,7,8,11,12,13,14,15,16,17-dodecahydro-1H-cyclopenta[a]phenanthren-11-yl)phenyl]ethyl ester hydrochloride] | 0.27 | 5.3 | > 192 | > 192 | 0.74 | 9.7 | –
CC(OC(=O)CCc1nccs1)c1ccc([C@H]2C[C@@]3(C)C(CC[C@@]3(O)C(F)(F)C(F)(F)F)C3CCC4=CC(=O)CCC4=C32)cc1 (mixture of isomers) [Example 15, 3-Thiazol-2-ylpropionic acid (RS)-1-[4-((8S,11R,13S,14S,17S)-17-hydroxy-13-methyl-3-oxo-17-pentafluoroethyl-2,3,6,7,8,11,12,13,14,15,16,17-dodecahydro-1H-cyclopenta[a]phenanthren-11-yl)phenyl]ethyl ester] | 0.1 | 1.2 | > 192 | > 192 | 0.1 | 131 | > 100
Cc1nccn1CCC(=O)O[C@@H](C)c1ccc([C@H]2C[C@@]3(C)[C@@H](CC[C@@]3(O)C(F)(F)C(F)(F)F)[C@@H]3CCC4=CC(=O)CCC4=C32)cc1 (single isomer, unassigned) [Example 14A] | 0.18 | 48.5 | – | – | 0.29 | 190 | > 100
Cc1nccn1CCC(=O)O[C@H](C)c1ccc([C@H]2C[C@@]3(C)[C@@H](CC[C@@]3(O)C(F)(F)C(F)(F)F)[C@@H]3CCC4=CC(=O)CCC4=C32)cc1 (single isomer, unassigned) [Example 14B] | 0.29 | 0.8 | – | – | 0.15 | 19.8 | –
C=CCOC(=O)N[C@@H](C)C(=O)O[C@H](C)c1ccc([C@H]2C[C@@]3(C)[C@@H](CC[C@@]3(O)C(F)(F)C(F)(F)F)[C@@H]3CCC4=CC(=O)CCC4=C32)cc1 [Example 9, (S)-2-Allyloxycarbonylaminopropionic acid (R)-1-[4-((8S,11R,13S,14S,17S)-17-hydroxy-13-methyl-3-oxo-17-pentafluoroethyl-2,3,6,7,8,11,12,13,14,15,16,17-dodecahydro-1H-cyclopenta[a]phenanthren-11-yl)phenyl]ethyl ester] | 0.01 | 0.3 | – | – | 0.09 | 231 | > 100
C=CCOC(=O)N[C@@H](C)C(=O)O[C@@H](C)c1ccc([C@H]2C[C@@]3(C)[C@@H](CC[C@@]3(O)C(F)(F)C(F)(F)F)[C@@H]3CCC4=CC(=O)CCC4=C32)cc1 [Example 10, (S)-2-Allyloxycarbonylaminopropionic acid (S)-1-[4-((8S,11R,13S,14S,17S)-17-hydroxy-13-methyl-3-oxo-17-pentafluoroethyl-2,3,6,7,8,11,12,13,14,15,16,17-dodecahydro-1H-cyclopenta[a]phenanthren-11-yl)phenyl]ethy lester] | 0.08 | 3.6 | – | – | 0.09 | 22.9 | –
